# Measurements from patent publication US9073895B2 (Boehringer Ingelheim International GmbH, priority 2010, dated 2015).
# Key:
# [1] = target: T1, recombinant human FLAP protein (Homo sapiens, UniProt P20292); test: FLAP binding assay (SPA, displacement of [125I]L-691,831); settings: membranes of sf9 cells expressing human FLAP, [125I]L-691,831 probe; read-out: hFLAP binding IC50
# T1 construct: made in house; host or cells: Sf9 insect cells (membrane fraction, 100,000 x g pellet)
# T1 sequence (P20292 1-161): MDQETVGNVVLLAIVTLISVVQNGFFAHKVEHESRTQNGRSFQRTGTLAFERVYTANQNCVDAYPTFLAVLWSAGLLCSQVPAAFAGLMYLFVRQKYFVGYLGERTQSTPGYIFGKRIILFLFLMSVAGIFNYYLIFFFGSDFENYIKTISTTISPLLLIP
# Procedure, shortened: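 Membranes from sf9 cells expressing human FLAP (5 μg/well) were bound to WGA SPA beads (200 μg/well). Nonspecific binding was defined with 10 μM unlabelled L-691,831.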
# [2] = tested on: synthesis of LTB4 in human whole blood; test: Human whole blood LTB4 production inhibition assay; assay type: cell-based; settings: heparinized human whole blood, calcimycin 20 μM, plasma LTB4; read-out: HuWB IC50
# Procedure, shortened: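 Readout: plasma LTB4 by antibody-based HTRF. Compound added to heparinized human whole blood, 15 min 37° C; calcimycin 20 μM final (PBS pH 7.4), 30 min 37° C; spun 1500×g 5 min, plasma taken.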
SMILES,IC50 [1] [nM],IC50 [2] [nM]
"COc1ccc(-c2ccc(NC(=O)C(C)(c3ccc(-c4cnc(N)nc4)cc3)C(C)C)nc2)cn1 (stereo not drawn) [Example 163, 2-[4-(2-aminopyrimidin-5-yl)phenyl]-N-(6'-methoxy-3,3'-bipyridin-6-yl)-2,3-dimethylbutanamide]",6.75,404
"COc1ccc(-c2ccc(NC(=O)C(C)(c3ccc(-c4cnc5c(c4)CCN5)cc3)C(C)C)nc2)cn1 (stereo not drawn) [Example 164, 2-[4-(2,3-dihydro-1H-pyrrolo[2,3-b]pyridin-5-yl)phenyl]-N-(6'-methoxy-3,3'-bipyridin-6-yl)-2,3-dimethylbutanamide]",1.9,315
"COc1cncc(-c2ccc(NC(=O)C(C)(c3ccc(-c4cnc5c(c4)CCN5)cc3)C(C)C)nc2)c1 (stereo not drawn) [Example 165, 2-[4-(2,3-dihydro-1H-pyrolo[2,3-b]pyridin-5-yl)phenyl]-N-(5'-methoxy-3,3'-bipyridin-6-yl)-2,3-dimethylbutanamide]",1.4,354
"COc1ccc(-c2ccc(NC(=O)C(C)(c3ccc(-c4cnc5[nH]ccc5c4)cc3)C(C)C)nc2)cn1 (stereo not drawn) [Example 166, N-(6'-methoxy-3,3'-bipyridin-6-yl)-2,3-dimethyl-2-[4-(1H-pyrolo[2,3-b]pyridin-5-yl)phenyl]butanamide]",3,332
"COc1cncc(-c2ccc(NC(=O)C3(c4ccc(-c5cnc6[nH]ccc6c5)cc4)CCOCC3)nc2)c1 [Example 167, N-(5'-methoxy-3,3'-bipyridin-6-yl)-4-[4-(1H-pyrrolo[2,3-b]pyridin-5-yl)phenyl]tetrahydro-2H-pyran-4-carboxamide]",4.7,354
"COc1ccc(-c2ccc(NC(=O)C3(c4ccc(-c5cnc6[nH]ccc6c5)cc4)CCOCC3)nc2)cn1 [Example 168, N-(6'-methoxy-3,3'-bipyridin-6-yl)-4-[4-(1H-pyrrolo[2,3-b]pyridin-5-yl)phenyl]tetrahydro-2H-pyran-4-carboxamide]",7.95,616
"CC(C)C(C)(C(=O)Nc1ccncc1)c1ccc(-c2cnc(N)nc2)cc1 (stereo not drawn) [Example 169, 2-[4-(2-aminopyrimidin-5-yl)phenyl]-2,3-dimethyl-N-(pyridin-4-yl)butanamide]",5.25,330
COc1ccc(-c2ccc(NC(=O)C3(c4ccc(-c5cnc(N)c(CO)c5)cc4)CCOCC3)nc2)cn1 [Example 170],9.8,894
"COc1cncc(-c2ccc(NC(=O)C3(c4ccc(-c5cnc(N)c(CO)c5)cc4)CCOCC3)nc2)c1 [Example 171, 4-{4-[6-amino-5-(hydroxymethyl)pyridin-3-yl]phenyl}-N-(5'-methoxy-3,3'-bipyridin-6-yl)tetrahydro-2H-pyran-4-carboxamide]",2.05,566
"Nc1ncc(-c2ccc(C3(C(=O)Nc4ccc(Oc5ccccc5)cn4)CCOCC3)cc2)cn1 [Example 173, 4-[4-(2-aminopyrimidin-5-yl)phenyl]-N-(5-phenoxypyridin-2-yl)tetrahydro-2H-pyran-4-carboxamide]",18,930
"O=C(Nc1ccc(Oc2ccccc2)cn1)C1(c2ccc(-c3cnc4[nH]ccc4c3)cc2)CCOCC1 [Example 174, N-(5-phenoxypyridin-2-yl)-4-[4-(1H-pyrrolo[2,3-b]pyridin-5-yl)phenyl]tetrahydro-2H-pyran-4-carboxamide]",18.1,686
"COc1cncc(-c2ccc(NC(=O)C3(c4ccc(-c5cnc6c(c5)CCN6)cc4)CCOCC3)nc2)c1 [Example 175, 4-[4-(2,3-dihydro-1H-pyrolo[2,3-b]pyridin-5-yl)phenyl]-N-(5'-methoy-3,3'-bipyridin-6-yl)tetrahydro-2H-pyran-4-carboxamide]",22,1280
"Cc1nc(-c2ccc(NC(=O)C3(c4ccc(-c5cnc(N)c(CO)c5)cc4)CCOCC3)nc2)cs1 [Example 176, 4-{4-[6-amino-5-(hydroxymethyl)pyridin-3-yl]phenyl}-N-[5-(2-methyl-1,3-thiazol-4-yl)pyridin-2-yl]tetrahydro-2H-pyran-4-carboxamide]",6.65,712
"Nc1ncc(-c2ccc(C3(C(=O)Nc4ccncc4)CCC3)cc2)cn1 [Example 177, 1-[4-(2-aminopyrimidin-5-yl)phenyl]-N-(pyridin-4-yl)cyclobutanecarboxamide]",5.1,217
"Cc1noc(-c2ccc(NC(=O)C3(c4ccc(-c5cnc(N)nc5)cc4)CCOCC3)nc2)n1 [Example 178, 4-[4-(2-aminopyrimidin-5-yl)phenyl]-N-[5-(3-methyl-1,2,4-oxadiazol-5-yl)pyridin-2-yl]tetrahydro-2H-pyran-4-carboxamide]",35.5,557
"N#Cc1ccc(NC(=O)C2(c3ccc(-c4cnc(N)c(CO)c4)cc3)CCOCC2)nc1 [Example 179, 4-{4-[6-amino-5-(hydroxymethyl)pyridin-3-yl]phenyl}-N-(5-cyanopyridin-2-yl)tetrahydro-2H-pyran-4-carboxamide]",24.7,388
"CC(C)C(C)(C(=O)Nc1cccnc1)c1ccc(-c2cnc3[nH]ccc3c2)cc1 (stereo not drawn) [Example 180, 2,3-dimethyl-N-(pyridin-3-yl)-2-[4-(1H-pyrrolo[2,3-b]pyridin-5-yl)phenyl]butanamide]",6.3,402
"Cc1nc(-c2ccc(NC(=O)C3(c4ccc(-c5cnc(N)c(C)n5)cc4)CCOCC3)nc2)cs1 [Example 182, 4-[4-(5-amino-6-methylpyrazin-2-yl)phenyl]-N-[5-(2-methyl-1,3-thiazol-4-yl)pyridin-2-yl]tetrahydro-2H-pyran-4-carboxamide]",32.5,1060
"Nc1ncc(-c2ccc(C3(C(=O)Nc4cccnc4)CCC3)cc2)cn1 [Example 183, 1-[4-(2-aminopyrimidin-5-yl)phenyl]-N-(pyridin-3-yl)cyclobutanecarboxamide]",51.6,480
"CC(C)C(C)(C(=O)Nc1cccnc1)c1ccc(-c2cnc(N)nc2)cc1 (stereo not drawn) [Example 184, 2-[4-(2-aminopyrimidin-5-yl)phenyl]-2,3-dimethyl-N-(pyridin-3-yl)butanamide]",39,1470
"Nc1ncc(-c2ccc(C3(C(=O)Nc4ccncn4)CCC3)cc2)cn1 [Example 185, 1-[4-(2-aminopyrimidin-5-yl)phenyl]-N-(pyrimidin-4-yl)cyclobutanecarboxamide]",17.5,955
"Cc1cc(NC(=O)C2(c3ccc(-c4cnc(N)nc4)cc3)CCC2)ccn1 [Example 186, 1-[4-(2-aminopyrimidin-5-yl)phenyl]-N-(2-methylpyridin-4-yl)cyclobutanecarboxamide]",3.2,334
"COc1cc(NC(=O)C2(c3ccc(-c4cnc(N)nc4)cc3)CCC2)ccn1 [Example 187, 1-[4-(2-aminopyrimidin-5-yl)phenyl]-N-(2-methoxypyridin-4-yl)cyclobutanecarboxamide]",5.1,517
"O=C(Nc1ccncn1)C1(c2ccc(-c3cnc4[nH]ccc4c3)cc2)CCC1 [Example 188, N-(pyrimidin-4-yl)-1-[4-(1H-pyrrolo[2,3-b]pyridin-5-yl)phenyl]cyclobutanecarboxamide]",1.65,130
